In patent publication US4123532A, “Method for treatment of asthma” (E. R. Squibb & Sons, Inc., priority 1977, dated 1978):
Read-outs that look alike come from different tables or passages of the source.

Tested on: reaginic antibody-induced passive cutaneous anaphylaxis (PCA) reaction
Test: Passive Cutaneous Anaphylaxis (PCA) Test in rats (anti-asthma activity)
Format: in vivo, rat
Details: for anti-asthma activity: rat PCA testing, result in words; for ED50: Rattus norvegicus, read-out: ID50 (the source's name)
From the text: The skin of rats is first sensitized by the intradermal injection of reaginic (allergic) antibody. Twenty-four hours later, the animals receive a challenge injection of antigen together with Evan's blue dye given intravenously. The antigen, thus injected directly into the circulation, encounters the antibody in the skin and an "allergic reaction" occurs which is identified by the formation of intracutaneous edema. The edema is marked by the presence of the Evan's blue dye in the circulation.
The anti-asthmatic activity of these compounds is determined by the reaginic antibody-induced passive cutaneous anaphylaxis (PCA) reaction in rats.
In this test, 0.05 ml of appropriately diluted whole rat serum containing IgE antibody is injected intradermally into the skin of a rat. The next day, the animals are dosed with the test compound ten minutes prior to the i.v. challenge injection of antigen and Evan's blue dye. Thirty minutes later, the animals are sacrificed, the skin reflected and the reaction quantitated by measuring the dye-marked edema and scoring the color intensity of the reaction.

[1] = IP, 75 mpk, rats dosed ten min. prior to challenge
[2] = IP, rats dosed ten min. prior to challenge

For `CCOC(=O)c1c(-c2ccccc2)nn2c(=O)[nH]c3ccccc3c12` [5,6-Dihydro-5-oxo-2-phenylpyrazolo[1,5-c]quinazoline-1-carboxylic acid, ethyl ester], the Maximum % inhibition [1] was 42% and the anti-asthma activity was “has anti-asthma activity”.
With `CCCCOC(=O)c1cc2c3ccccc3[nH]c(=O)n2n1` [5,6-Dihydro-5-oxopyrazolo[1,5-c]-quinazoline-2-carboxylic acid, n-butyl ester] the Maximum % inhibition (IP, (150 mpk) (10 mg/kg) both printed, rats dosed ten min. prior to challenge) was 78%, the ED50 [2] was 9 mg/kg and the anti-asthma activity was “has anti-asthma activity”.
`CCOC(=O)c1cc2c3ccccc3[nH]c(=O)n2n1` [5,6-Dihydro-5-oxopyrazolo[1,5-c]quinazoline-2-carboxylic acid, ethyl ester] gave a Maximum % inhibition (IP, 10 mg/kg, rats dosed ten min. prior to challenge) of 94%, a Maximum % inhibition (PO, 9 mg/kg, rats dosed ten min. prior to challenge) of 95% and an ED50 [2] of 2 mg/kg. For the same compound, the ED50 (PO (orally), rats dosed ten min. prior to challenge) was 3 mg/kg and the anti-asthma activity was “has anti-asthma activity”.
For `CCOC(=O)c1cc2c3cc(Cl)ccc3[nH]c(=O)n2n1` [9-Chloro-5,6-dihydro-5-oxopyrazolo[1,5-c]quinazoline-2-carboxylic acid, ethyl ester], the Maximum % inhibition [1] was 93%, the ED50 [2] was 9 mg/kg and the anti-asthma activity was “has anti-asthma activity”.
For `COC(=O)c1nn2c(=O)[nH]c3ccccc3c2c1C(=O)OC` [Example 11], the “% Inhibition” value (PCA, IP, 150 mpk) was 21%.
For `CC(=O)c1cc2c3ccccc3[nH]c(=O)n2n1` [Example 12], the “% Inhibition” value (PCA, IP, 75 mpk) was 32%.
With `O=C(O)c1cc2c3ccccc3[nH]c(=O)n2n1` [Example 13, 5,6-Dihydro-5-oxopyrazolo-[1,5-c]quinazoline-2-carboxylic acid] the “% Inhibition” value (PCA, IP, 75 mpk) was 36%.
`CC(=O)c1cc2c3ccccc3n(C)c(=O)n2n1` [Example 14] was tested, and the “% Inhibition” value (PCA, IP, 150 mpk) was 32%.
`CCOC(=O)c1nn2c(=O)[nH]c3ccccc3c2c1C` [Example 15] was tested, and the “% Inhibition” value (PCA, IP, 150 mpk) was 63% and the ED50 (PCA, IP) was 58 mg/kg.
In the case of `O=C(c1ccccc1)c1cc2c3ccccc3[nH]c(=O)n2n1` [Example 16], the “% Inhibition” value (PCA, IP, 150 mpk) is reported as 37%.
With `CCOC(=O)c1cc2c3cc(OC)ccc3[nH]c(=O)n2n1` [Example 17] the “% Inhibition” value (PCA, IP, 25 mpk) was 90%.
For `O=c1[nH]c2ccccc2c2ccnn12` [Pyrazolo[1,5-c]quinazoline-5(6H)-one, Pyrazolo[1,5-c]quinazolin-5(6H)-one], the Maximum % inhibition [1] was 59% and the anti-asthma activity was “has anti-asthma activity”.
